These results are taken from patent US12023348B2, “EGR1 targeting molecules for the treatment of inflammatory and hyperproliferative conditions” (The Medical Research, Infrastructure and Health Services …, priority 2015, dated 2024).

Data set [1] relates to SAMD9. As to the kind of experiment: SAMD9 RNA expression by qRT-PCR in TERC-transformed fibroblasts. The settings on record: 5 μM, 24 hours, qRT-PCR vs DMSO (FIG. 1C). The format is cell-based, human. How it is done: TERC-transformed fibroblasts were transformed with a pBABE-H2AGFP construct containing the human telomerase gene were cultured High Glucose DMEM, 10% FCS, L-glutamine and Pen-Strep (all cell culture regents from Biological Industries, Israel). Medium was changed every 2-3 days. Cells were used at passage 2-3.
(§1) Of note, when cells were incubated with CaCx and ApDx (NCI, MA USA), they were grown in the appropriate medium with 0.1% FCS only.
RNA was extracted from cell cultures using an RNA extraction kit (Roche Diagnostics, Mahheim, Germany). cDNA was synthesized from 500 ng of total RNA using the Verso cDNA kit (Thermo Fisher Scientific, Waltham, MA, USA). cDNA PCR amplification was carried out using the Fast SYBR Green Master Mix in a StepOnePlus™ Real-Time PCR System (Applied Biosystems, Foster City, CA, USA) with gene-specific intron-crossing oligonucleotide pairs listed in Table 1 (below). For quantification, standard curves were obtained using serially diluted cDNA amplified in the same qRT-PCR run. The melting temperature (Tm) of the amplified products was measured to confirm the specificity of the reaction conditions. […] Each sample was analyzed in triplicate. mRNA expression level for target gene was normalized to GAPDH. The results are based the amount of target, normalized to an endogenous reference (IACTB) and relative to a calibrator, as calculated by 2-ΔΔCT. […]
(Quantitative PCR measures a nucleic acid by following its amplification.)

Data set [2] has as its system SAMD9. As to the kind of experiment: SAMD9 RNA expression by qRT-PCR in primary fibroblasts. Type of data set: cell-based, human. The settings on record: for SAMD9 expression in primary fibroblasts: 5 μM, 24 hours, qRT-PCR vs DMSO (FIG. 1C); for Dose and time dependence of SAMD9 up-regulation: primary fibroblasts, 5 μM over 72 hours, 1, 2, 5, 10 μM (FIGS. 2A-B). How it is done:
Primary fibroblasts were isolated from human adult skin and were grown in High Glucose DMEM, 10% Fetal Bovine Serum, L-glutamine and Pen-Strep. Medium was changed every 2-3 days. Cells were used at passage 2-3.
as §1
(§2) RNA was extracted from cell cultures using an RNA extraction kit (Roche Diagnostics, Mahheim, Germany). cDNA was synthesized from 500 ng of total RNA using the Verso cDNA kit (Thermo Fisher Scientific, Waltham, MA, USA). cDNA PCR amplification was carried out using the Fast SYBR Green Master Mix in a StepOnePlus™ Real-Time PCR System (Applied Biosystems, Foster City, CA, USA) with gene-specific intron-crossing oligonucleotide pairs listed in Table 1 (below). For quantification, standard curves were obtained using serially diluted cDNA amplified in the same qRT-PCR run. The melting temperature (Tm) of the amplified products was measured to confirm the specificity of the reaction conditions. Cycling conditions were as follows: 95° C. for 10 minutes, 95° C. for 10 seconds, 62° C. for 15 seconds, and 72° C. for 25 seconds for a total of 40 cycles. Each sample was analyzed in triplicate. mRNA expression level for target gene was normalized to GAPDH. The results are based the amount of target, normalized to an endogenous reference (IACTB) and relative to a calibrator, as calculated by 2-ΔΔCT. All samples were run in triplicate. The expression levels of target genes were expressed as mRNA relative units.
The potential ability of these 31 molecules to induce SAMD9 expression in cell cultures was then scrutinized.

Data set [3] has as its system human psoriatic skin graft. Put plainly: Chimeric mice carrying human psoriatic skin. Type of data set: in vivo. To be noted: for Clinical and histological psoriasiform phenotype (average improvement score) / Overt toxicity / Epidermal thickness / Keratinocyte proliferation (Ki67): i.p. five times a week; for Clinical and histological psoriasiform phenotype (average improvement score) / Overt toxicity: 10 days; for Clinical and histological psoriasiform phenotype (average improvement score): ApDx 5 mg/kg (p<0.0001), CaCx 15 mg/kg (p<0.05) (FIG. 6); for Overt toxicity / Epidermal thickness / Keratinocyte proliferation (Ki67): ApDx 5 mg/kg or CaCx 15 mg/kg; for Epidermal thickness / Keratinocyte proliferation (Ki67): biopsies after 10 days (FIGS. 7A-F, 8).
Source text: Chimeric mice carrying human psoriatic skin were generated using SCID mice, 2-3 months of age. Animals were maintained in a pathogen-free animal facility. A psoriasis-like phenotype was induced in normal human skin grafted onto the mice by intradermal injection of natural killer/T cells derived from psoriatic patients as previously described [Gilhar A et al. J Invest Dermatol (2011) 131: 118-124].
Formaldehyde-fixed 5-μm paraffin-embedded sections from skin biopsies were deparaffinized and treated with 3% H2O2 in methanol for 15 minutes at room temperature, warmed in a microwave oven in citrate buffer in a pressure cooker for 25 minutes, and stained with a monoclonal anti-Ki67 antibody (Thermo Scientific) for 1 hour at room temperature. Following 3 washings (10 minutes each) with phosphate-buffered saline (PBS), the antibodies were imaged using the ABC technique (Zymed Laboratories, South San Francisco, CA) and the slides were counterstained with hematoxylin.
Epidermal thickness was defined as the distance between the granular layer and the basement membrane and was measured at 10 randomly selected locations for each biopsy using NIS-Elements BR 3.2 software (Nikon, NY USA). An image was taken and was manually measured in the software by selecting an upper and lower border, as defined above. The distance was measured in microns.
as §2
To assess the potential therapeutic role of the compounds (ApDx and CaCx) of some embodiments of the invention, the two compounds were administered systemically (i.p) to chimeric mice carrying human psoriatic skin. In short, SCID mice, 2-3 months of age, were maintained in a pathogen-free animal facility. A psoriasis-like phenotype was induced in normal human skin grafted onto the mice by intradermal injection of natural killer/T cells derived from psoriatic patients as previously described [Gilhar A et al. J Invest Dermatol (2011) 131: 118-124]. Two weeks after natural killer/T-cell injection (6 weeks after human skin grafting), mice were injected i.p. five times a week. Four groups of mice were treated as follows: one group of mice was injected five times a week with the vehicle; a second group of mice was injected five times a week ApDx (5 mg/kg); a third group of mice was injected five times a week CaCx (15 mg/kg); and a fourth group of mice, was treated with dexamethasone (DEX) cream applied 5 times a week on the graft, as positive control (DEX was expected to attenuate inflammation in this model). Each group included five mice, and the treatment was performed for a total of 10 days. The grafts were harvested from the four groups of mice, paraffin-embedded, stained for hematoxylin and eosin (H&E), analyzed and scored for the average improvement of the clinical and histological psoriasiform phenotype.

For `Cc1c2ccnc(C(N)=O)c2c(C)c2c1[nH]c1ccccc12.Cl` [Compound 335142, 6H-Pyrido[4,3-b]carbazole-1-carboxamide, 5,11-dimethyl-, monohydrochloride], the “SAMD9 expression in TERC-transformed fibroblasts” value in data set [1] was “significantly induce”. Further, in data set [2], the “SAMD9 expression in primary fibroblasts” value is “significantly induce”; the “Dose and time dependence of SAMD9 up-regulation” value was “both dose and time dependent”. Further, in data set [3], the “Clinical and histological psoriasiform phenotype (average improvement score)” value is “significant clinical and histological attenuation”; the Overt toxicity result is “No overt toxicity”; the Epidermal thickness result is “significant decrease”; the “Keratinocyte proliferation (Ki67)” value is reported as “significant decrease”. Further, the “EGR1 RNA levels in treated skin” value in data set [3] (quantitative PCR vs vehicle group (FIG. 9), CaCx 15 mg/kg i.p.) is “significant decrease”.
In the case of `CCCN1c2ccc(N)cc2S(=O)(=O)c2cc(Cl)cc(Cl)c21` [Compound 629971, 7,9-dichloro-5,5-dioxo-10-propylphenothiazin-3-amine], the “SAMD9 expression in TERC-transformed fibroblasts” value in data set [1] is reported as “significantly induce”. In addition, in data set [2], the “SAMD9 expression in primary fibroblasts” value was “significantly induce”; the “Dose and time dependence of SAMD9 up-regulation” value was “both dose and time dependent”. For the same compound, in data set [3], the “Clinical and histological psoriasiform phenotype (average improvement score)” value was “significant clinical and histological attenuation”; the Overt toxicity entry was “No overt toxicity”; the Epidermal thickness result is “significant decrease”; the “Keratinocyte proliferation (Ki67)” value is on record as “significant decrease”.
